Target: T1, human TLR9 (Homo sapiens, UniProt Q9NR96)
T1 sequence (Q9NR96 26-1032): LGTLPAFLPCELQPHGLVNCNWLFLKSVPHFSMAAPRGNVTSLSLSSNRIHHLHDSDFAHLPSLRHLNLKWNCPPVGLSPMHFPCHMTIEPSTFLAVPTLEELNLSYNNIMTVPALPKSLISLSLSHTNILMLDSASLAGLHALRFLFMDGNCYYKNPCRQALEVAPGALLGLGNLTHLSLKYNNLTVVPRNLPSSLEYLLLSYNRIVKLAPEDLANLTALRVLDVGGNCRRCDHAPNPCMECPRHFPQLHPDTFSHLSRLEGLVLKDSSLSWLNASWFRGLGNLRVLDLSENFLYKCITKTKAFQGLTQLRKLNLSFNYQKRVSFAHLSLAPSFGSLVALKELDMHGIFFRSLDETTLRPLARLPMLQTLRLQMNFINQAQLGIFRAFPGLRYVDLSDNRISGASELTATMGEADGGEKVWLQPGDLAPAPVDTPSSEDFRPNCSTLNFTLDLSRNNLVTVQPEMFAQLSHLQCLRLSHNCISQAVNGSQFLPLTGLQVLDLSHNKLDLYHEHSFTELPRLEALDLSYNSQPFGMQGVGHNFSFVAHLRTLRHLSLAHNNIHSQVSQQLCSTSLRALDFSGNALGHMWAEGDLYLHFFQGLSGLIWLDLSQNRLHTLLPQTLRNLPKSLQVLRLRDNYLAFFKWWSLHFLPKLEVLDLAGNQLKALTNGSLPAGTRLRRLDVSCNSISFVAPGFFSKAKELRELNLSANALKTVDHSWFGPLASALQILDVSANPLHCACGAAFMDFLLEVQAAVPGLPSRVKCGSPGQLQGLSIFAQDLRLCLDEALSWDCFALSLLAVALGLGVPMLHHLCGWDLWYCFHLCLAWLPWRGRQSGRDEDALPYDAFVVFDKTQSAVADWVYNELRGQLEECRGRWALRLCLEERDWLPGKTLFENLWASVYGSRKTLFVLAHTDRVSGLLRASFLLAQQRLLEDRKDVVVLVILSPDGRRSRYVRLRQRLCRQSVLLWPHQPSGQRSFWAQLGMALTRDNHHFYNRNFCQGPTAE
Assay: HEK293-Blue-hTLR-9 cells assay
Type: cell-based
Conditions: HEK293-Blue-hTLR9 cells, ODN2006 stimulation, 20 hrs, SEAP reporter; read-out: HEK/hTLR9 IC50
Description: HEK293-Blue-hTLR-9 Cells Assay:
A stable HEK293-Blue-hTLR-9 cell line was purchased from InvivoGen (Cat. #: hkb-htlr9, San Diego. California USA). These cells were originally designed for studying the stimulation of human TLR9 by monitoring the activation of NF-κB. A SEAP (secreted embryonic alkaline phosphatase) reporter gene was placed under the control of the IFN-β minimal promoter fused to five NF-κB and AP-1-binding sites. The SEAP was induced by activating NF-κB and AP-1 via stimulating HEK-Blue hTLR9 cells with TLR9 ligands. Therefore the reporter expression was declined by TLR9 antagonist under the stimulation of a ligand, such as ODN2006 (Cat. #: tlrl-2006-1, Invivogen, San Diego, California USA), for incubation of 20 hrs. The cell culture supernatant SEAP reporter activity was determined using QUANTI-Blue™ kit (Cat. #: rep-qb1, Invivogen, San Diego, California, USA) at a wavelength of 640 nm, a detection medium that turns purple or blue in the presence of alkaline phosphatase.
HEK293-Blue-hTLR9 cells were incubated at a density of 250.000-450,000 cells/mL in a volume of 170 μL in a 96-well plate in Dulbecco's Modified Eagle's medium (DMEM) containing 4.5 g/L glucose, 50 U/mL penicillin, […], […], 2 mM L-glutamine, 10% (v/v) heat-inactivated fetal bovine serum with addition of 20 μL test compound 1n a serial dilution in the presence of final DMSO at 1% and 10 μL of 20 uM ODN2006 in above DMEM, perform incubation under 37° C. in a CO2 incubator for 20 hrs. Then 20 μL of the supernatant from each well was incubated with 180 μL Quanti-blue substrate solution at 37° C. for 2 h and the absorbance was read at 620˜655 nm using a spectrophotometer. The signaling pathway that TLR9 activation leads to downstream NF-κB activation has been widely accepted, and therefore similar reporter assay was modified for evaluating TLR9 antagonist.

IC50 [nM] | SMILES
83.2 | C[C@@H]1CN(c2ccc(C#N)c3ncccc23)C[C@@H]2c3ccc(N4CCNCC(O)C4)cc3CN12 (stereo partly drawn) [Example 15, 5-[(4R,10bS)-8-(6-hydroxy-1,4-diazepan-1-yl)-4-methyl-3,4,6,10b-tetrahydro-1H-pyrazino[2,1-a]isoindol-2-yl]quinoline-8-carbonitrile]
130 | C[C@@H]1CN(c2ccc(C#N)c3ncccc23)C[C@@H]2c3ccc(C4CCNCC4)cc3CN12 [Example 9, 5-[(4R,10bS)-4-methyl-8-(4-piperidyl)-3,4,6,10b-tetrahydro-1H-pyrazino[2,1-a]isoindol-2-yl]quinoline-8-carbonitrile]
70.8 | C[C@@H]1CN(c2ccc(C#N)c3ncccc23)C[C@@H]2c3ccc(N4C[C@@H](N)[C@H](O)C4)cc3CN12 (single isomer, unassigned) [Example 40B]
165 | C[C@@H]1CN(c2ccc(C#N)n3nccc23)C[C@@H]2c3ccc(N4CCOC[C@H](N)C4)cc3CN12 [Example 101, 4-[(4R,10bS)-8-[(6R)-6-amino-1,4-oxazepan-4-yl]-4-methyl-3,4,6,10b-tetrahydro-1H-pyrazino[2,1-a]isoindol-2-yl]pyrazolo[1,5-a]pyridine-7-carbonitrile]
142 | C[C@@H]1CN(c2ccc(C#N)n3nccc23)C[C@@H]2c3ccc(N4CC[C@@](C)(N)C4)cc3CN12 [Example 103, 4-[(4R,10bS)-8-[(3R)-3-amino-3-methyl-pyrrolidin-1-yl]-4-methyl-3,4,6,10b-tetrahydro-1H-pyrazino[2,1-a]isoindol-2-yl]pyrazolo[1,5-a]pyridine-7-carbonitrile]
81 | CO[C@@H]1CN(c2ccc3c(c2)CN2C3CN(c3ccc(C#N)c4ncccc34)C[C@H]2C)C[C@@H]1N (relative stereo) [Example 17, 5-[(4R,10bS)-8-[cis-3-amino-4-methoxy-pyrrolidin-1-yl]-4-methyl-3,4,6,10b-tetrahydro-1H-pyrazino[2,1-a]isoindol-2-yl]quinoline-8-carbonitrile]
135 | CO[C@@H]1CN(c2ccc3c(c2)CN2[C@H](C)CN(c4ccc(C#N)n5ncc(F)c45)C[C@H]32)C[C@H]1N [Example 113, 4-[(4R,10bS)-8-[(3R,4R)-3-amino-4-methoxy-pyrrolidin-1-yl]-4-methyl-3,4,6,10b-tetrahydro-1H-pyrazino[2,1-a]isoindol-2-yl]-3-fluoro-pyrazolo[1,5-a]pyridine-7-carbonitrile]
227 | C[C@@H]1CN(c2ccc(C#N)n3ncc(F)c23)C[C@@H]2c3ccc(N4C[C@H](N)[C@@](C)(O)C4)cc3CN12 [Example 112, 4-[(4R,10bS)-8-[(3S,4S)-4-amino-3-hydroxy-3-methyl-pyrrolidin-1-yl]-4-methyl-3,4,6,10b-tetrahydro-1H-pyrazino[2,1-a]isoindol-2-yl]-3-fluoro-pyrazolo[1,5-a]pyridine-7-carbonitrile]
160 | C[C@@H]1CN(c2ccc(C#N)n3nccc23)C[C@@H]2c3ccc(N4C[C@H](N)[C@@](C)(O)C4)cc3CN12 [Example 109, 4-[(4R,10bS)-8-[(3S,4S)-4-amino-3-hydroxy-3-methyl-pyrrolidin-1-yl]-4-methyl-3,4,6,10b-tetrahydro-1H-pyrazino[2,1-a]isoindol-2-yl]pyrazolo[1,5-a]pyridine-7-carbonitrile]
92 | C[C@@H]1CN(c2ccc(C#N)c3ncccc23)C[C@@H]2c3ccc(N4CCNC[C@H]4CO)cc3CN12 [Example 11, 5-[(4R,10S)-8-[(2S)-2-(hydroxymethyl)piperazin-1-yl]-4-methyl-3,4,6,10b-tetrahydro-1H-pyrazino[2,1-a]isoindol-2-yl]quinoline-8-carbonitrile]
146 | C[C@@H]1CN(c2ccc(C#N)c3ncccc23)C[C@@H]2c3ccc(N4C[C@@H](N)[C@@H](F)C4)cc3CN12 [Example 47, 5-[(4R,10bS)-8-[(3R,4S)-3-amino-4-fluoro-pyrrolidin-1-yl]-4-methyl-3,4,6,10b-tetrahydro-1H-pyrazino[2,1-a]isoindol-2-yl]quinoline-8-carbonitrile]
55.5 | CN[C@@H]1CN(c2ccc3c(c2)CN2[C@H](C)CN(c4ccc(C#N)c5ncccc45)C[C@H]32)C[C@H]1O [Example 43, 5-[(4R,10bS)-4-methyl-8-[(3R,4R)-3-hydroxy-4-(methylamino)pyrrolidin-1-yl]-3,4,6,10b-tetrahydro-1H-pyrazino[2,1-a]isoindol-2-yl]quinoline-8-carbonitrile]
215 | CO[C@H]1CN(c2ccc3c(c2)CN2[C@H](C)CN(c4ccc(C#N)n5nccc45)C[C@H]32)C[C@@H]1N [Example 95, 4-[(4R,10bS)-8-[(3S,4S)-3-amino-4-methoxy-pyrrolidin-1-yl]-4-methyl-3,4,6,10b-tetrahydro-1H-pyrazino[2,1-a]isoindol-2-yl]pyrazolo[1,5-a]pyridine-7-carbonitrile]
66.6 | CO[C@@H]1CNC[C@H]1Nc1ccc2c(c1)CN1[C@H](C)CN(c3ccc(C#N)c4ncccc34)C[C@H]21 [Example 34, 5-[(4R,10bS)-8-[[(3R,4R)-4-methoxypyrrolidin-3-yl]amino]-4-methyl-3,4,6,10b-tetrahydro-1H-pyrazino[2,1-a]isoindol-2-yl]quinoline-8-carbonitrile]
89.2 | C[C@@H]1CN(c2ccc(C#N)c3ncccc23)C[C@@H]2c3ccc(N[C@@H]4CNC[C@@H]4F)cc3CN12 [Example 32, 5-[(4R,10bS)-8-[[(3R,4S)-4-fluoropyrrolidin-3-yl]amino]-4-methyl-3,4,6,10b-tetrahydro-1H-pyrazino[2,1-a]isoindol-2-yl]quinoline-8-carbonitrile]
102 | C[C@@H]1CN(c2ccc(C#N)c3ncccc23)C[C@@H]2c3ccc(N4C[C@H]5NCCO[C@@H]5C4)cc3CN12 [Example 44, 5-[(4R,10bS)-4-methyl-8-[(4aR,7aR)-3,4,4a,5,7,7a-hexahydro-2H-pyrrolo[3,4-b][1,4]oxazin-6-yl]-3,4,6,10b-tetrahydro-1H-pyrazino[2,1-a]isoindol-2-yl]quinoline-8-carbonitrile]
65.3 | C[C@@H]1CN(c2ccc(C#N)c3ncccc23)C[C@@H]2c3ccc(N4CCC(N)(CO)C4)cc3CN12 (stereo partly drawn) [Example 19, 5-[(4R,10bS)-8-[3-amino-3-(hydroxymethyl)pyrrolidin-1-yl]-4-methyl-3,4,6,10b-tetrahydro-1H-pyrazino[2,1-a]isoindol-2-yl]quinoline-8-carbonitrile]
81.1 | C[C@@H]1CN(c2ccc(C#N)c3ncccc23)C[C@@H]2c3ccc(N4CC5CNCC(C4)O5)cc3CN12 [Example 14, 5-[(4R,10bS)-4-methyl-8-(9-oxa-3,7-diazabicyclo[3.3.1]nonan-3-yl)-3,4,6,10b-tetrahydro-1H-pyrazino[2,1-a]isoindol-2-yl]quinoline-8-carbonitrile]
90.3 | CO[C@@H]1CN(c2ccc3c(c2)CN2[C@H](C)CN(c4ccc(C#N)n5nccc45)C[C@H]32)CC[C@H]1N [Example 104, 4-[(4R,10bS)-8-[(3R,4R)-4-amino-3-methoxy-1-piperidyl]-4-methyl-3,4,6,10b-tetrahydro-1H-pyrazino[2,1-a]isoindol-2-yl]pyrazolo[1,5-a]pyridine-7-carbonitrile]

Source: US12157746B2, “Tetrahydro-1H-pyrazino[2,1-a]isoindolylquinoline compounds for the treatment of autoimmune disease” (F. HOFFMANN-LA ROCHE AG, priority 2018, dated 2024)
